The source of these data is patent US12313632B2, “Tepoxalin targeting of ABCB1 overexpressing cancers” (THE BROAD INSTITUTE, INC., priority 2018, dated 2025).

The subject of series [1] is barcode-tagged neoplastic cell line populations sorted by ABCB1 expression. Kind of series: PRISM multiplexed cellular viability screen, cell killing plotted against ABCB1 expression. As to conditions: for Phenocopy of tepoxalin activity in PRISM: tested at the same dose.
Experimental: PRISM cell line barcoding, pooling, and screening was performed as previously described with several improvements to the original method (5). First, the lentiviral vector was modified to encode the unique barcode identifier at the end of the puromycin resistance gene. This enables barcodes to be detected using a variant of the mRNA capture and Luminex detection method developed for the L1000 gene expression assay (6). Second, a set of ten inert barcodes were spiked-in to each well of each plate after cell lysis to control for variation in PCR amplification as detailed below.
Cell viability was calculated as the ratio of nMFI to the median of the nMFI from the DMSO-treated negative controls for each cell line on each plate. Batch effects produced from variable detection and assay conditions were then removed using ComBat (8). The final viability values were calculated as the median of the batch-corrected cell viabilities from biological replicates for each cell line, compound and dose.
Measures of dose response were obtained by fitting 3-parameter logistic curves to viability values for each compound and cell line using the R package ‘drc’. Following the practice of Smirnov and Safikhani (9), viability was truncated at 1.0 and fit as a function of drug concentration according to:
High-throughput “next gen” sequencing performed upon arrayed cell populations allowed for well-by-well tracking of cell viability over time, in the presence and absence of library compounds, via barcode enumeration and deconvolution of treated and control cell line populations. Using this approach, cell viability dose-response curves were generated for each compound of the drug repurposing library, across all targeted cell lines present in the barcode-tagged neoplastic cell line “PRISM” populations.
By sorting the “PRISM” population cell lines by their respective relative levels of ABCB1 expression (as assessed by RNAseq), the cell killing profile of each drug repurposing library compound tested could be plotted against relative levels of ABCB1 expression, thereby obtaining a cell killing profile that served as a proxy for dose-response of the library compound across progressively increasing levels of ABCB1 expression.
In series [2] the test system is LS1034 cells. Kind of series: CellTiter-Glo cellular viability assay, killing of LS1034 cells. The note with it: for IC50: Homo sapiens, LS-1034. Type of series: cell-based, human. The protocol:
(§1) Cell viability was assayed using a modified manufacturer's protocol for CellTiter-Glo® (Promega #G7573). Cells were seeded at a density of 2000 cells per well in a 96 well black, clear bottom plate (Corning #89091-012) in 100 uL total media per well. The following day different concentrations of compounds at various doses were printed in triplicate in a random well format using the Tecan D300e Digital Dispenser. After 120H, 60 μL of a 1:3 solution of CellTiterGlo reagent in 1×PBS (Corning #01018002) was added per well and allowed to incubate at RT for 10 mins. Luminescence was measured with an integration time of 0.1 s using Envision Microplates Reader (PERKIN ELMER #2105-0010). Biological replicates were averaged and normalized to vehicle control. Dose curves were generated using Graphpad Prism.
Background: In ATP-based viability assays light output follows the ATP content of the culture.

The subject of series [3] is REC1 cells. Kind of series: Expanded cell line viability comparison, killing of REC1 cells. It counts as cell-based, human. The note with it: REC1 versus LS1034. The protocol:
as §1

Series [4] concerns Kuramochi-ABCB1 cells. Kind of series: Killing of native Kuramochi cells versus Kuramochi cells overexpressing ABCB1 (Kuramochi-ABCB1). It counts as cell-based, human. As to conditions: for Change of compound-mediated killing with overexpressed ABCB1: Kuramochi-ABCB1 versus native Kuramochi cells. On the procedure:
Cell viability was assayed using a modified manufacturer's protocol for CellTiter-Glo® (Promega #G7573). […] The following day different concentrations of compounds at various doses were printed in triplicate in a random well format using the Tecan D300e Digital Dispenser. […] Biological replicates were averaged and normalized to vehicle control. Dose curves were generated using Graphpad Prism.
Next, the consequence of ectopic ABCB1 overexpression in cells resistant to tepoxalin was evaluated.

Series [5] deals with T1, MDR1 (Homo sapiens, UniProt P08183). Kind of series: P-Glycoprotein transporter cell based antagonism assay (calcein AM assay). As to conditions: read-out: IC50 in calcein AM assay; relies upon cell-permeability of compounds.
T1 sequence (P08183 whole entry): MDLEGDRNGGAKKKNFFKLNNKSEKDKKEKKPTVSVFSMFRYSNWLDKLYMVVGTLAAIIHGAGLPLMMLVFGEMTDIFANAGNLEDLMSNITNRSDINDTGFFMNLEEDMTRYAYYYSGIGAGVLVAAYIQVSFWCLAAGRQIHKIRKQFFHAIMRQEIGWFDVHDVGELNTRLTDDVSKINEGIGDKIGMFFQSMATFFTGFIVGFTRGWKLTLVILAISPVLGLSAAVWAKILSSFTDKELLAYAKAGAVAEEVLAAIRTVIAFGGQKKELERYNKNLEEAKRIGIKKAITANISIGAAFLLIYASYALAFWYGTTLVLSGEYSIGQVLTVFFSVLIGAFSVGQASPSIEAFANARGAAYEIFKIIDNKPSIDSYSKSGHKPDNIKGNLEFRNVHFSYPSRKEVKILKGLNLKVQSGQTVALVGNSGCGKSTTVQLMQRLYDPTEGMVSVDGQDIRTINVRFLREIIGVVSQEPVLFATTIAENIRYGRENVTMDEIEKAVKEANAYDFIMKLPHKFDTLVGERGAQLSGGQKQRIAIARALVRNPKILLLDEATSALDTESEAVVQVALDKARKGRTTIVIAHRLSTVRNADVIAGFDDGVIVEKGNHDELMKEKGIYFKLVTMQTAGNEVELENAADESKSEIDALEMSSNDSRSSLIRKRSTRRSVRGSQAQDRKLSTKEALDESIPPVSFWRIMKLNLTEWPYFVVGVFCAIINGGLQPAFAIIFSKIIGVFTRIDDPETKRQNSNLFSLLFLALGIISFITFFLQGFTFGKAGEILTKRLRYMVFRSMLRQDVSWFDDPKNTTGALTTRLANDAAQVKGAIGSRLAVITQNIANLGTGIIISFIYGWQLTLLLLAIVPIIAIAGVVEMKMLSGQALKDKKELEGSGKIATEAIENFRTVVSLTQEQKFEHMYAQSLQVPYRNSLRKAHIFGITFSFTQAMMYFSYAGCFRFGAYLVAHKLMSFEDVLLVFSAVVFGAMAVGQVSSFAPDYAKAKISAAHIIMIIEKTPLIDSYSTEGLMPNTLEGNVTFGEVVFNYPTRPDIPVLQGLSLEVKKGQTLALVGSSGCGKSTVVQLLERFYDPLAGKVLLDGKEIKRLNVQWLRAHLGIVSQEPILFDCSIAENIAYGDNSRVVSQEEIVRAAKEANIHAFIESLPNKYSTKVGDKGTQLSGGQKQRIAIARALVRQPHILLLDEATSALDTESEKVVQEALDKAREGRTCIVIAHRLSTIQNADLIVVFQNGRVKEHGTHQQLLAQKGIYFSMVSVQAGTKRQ
Series [6] relates to cyclooygenase. As to conditions: in vitro; cited from earlier work.
The subject of series [7] is LS1034 cells. Kind of series: Compound cell permeability assay (LC-MS). As to conditions: 3 hour incubation, 20 μM, with or without ABCB1 knockout or elacridar.
Experimental: (§2) Compound was incubated in naïve cell media (no cell control, or NCC) or in the presence of cells at 1 million cells/mL. The incubation was carried out in a 37° C. with 5% CO2 cell incubator with gentle plate shaking for 3 hours. Following the incubation, the NCC samples were placed on the bench until final analysis. Cell samples were centrifuged at 500×g for 5 minutes. The supernatant was removed, and the cells were washed twice with cold PBS. Cells were again centrifuged at 500×g for 5 minutes, the supernatant was removed/discarded, and cells were resuspended in 130 pL water (Honeywell, catalog #33015-1L). The entire volume was then transferred into a Covaris microTUBE plate (Covaris, catalog #220078) and sonicated on a Covaris LE220 focused-ultrasonicator. Samples were transferred to a 96wp and centrifuged at 3000×g for 15 min at 20° C. The supernatant was transferred to a new 96wp. For both the NCC and cell samples, 5 pL was transferred to a 96wp. To each sample was added 45 pL cell media, 50 pL water, and 50 pL acetonitrile containing internal standard. […]
(§3) Samples were analyzed on a UPLC-MS/MS system consisting of a Waters Acquity I-Class FTN and AB Sciex 4500 Triple Quad mass spectrometer with compounds being detected by positive mode MRM detection. […] Sample concentrations were determined using a standard curve and dilution quality control samples prepared in a surrogate matrix. […]
The conditions of series [8]: published pharmacokinetic studies; cited from earlier work.
Series [9] concerns the target T1, MDR1. Kind of series: cell-based.
In series [10] the test system is LS1034 cells.
Experimental: as §2, §3
For series [11] the following is noted: rat model, compared with naproxen; cited from earlier work.
The target in series [12] is T1, MDR1. Kind of series: cell-based. This is another data set of the same source.
Series [13] deals with LS1034 cells administered sg ABCB1-2. Kind of series: Viability of LS1034 cells given control sgRNA (sg GFP) or ABCB1 knockdown sgRNA (sg ABCB1-2). Type of series: cell-based, human. As to conditions: sg ABCB1-2 compared to control sgRNA sg GFP. On the procedure: A mixture of 3E6 cells, virus, and media with 4 μg/mL polybrene (Millipore) at a total volume of 2 mL was plated per well of a 12 well plate. Cells were centrifuged at 2000 RPM for 2 hours at 30° C. After removal from incubator, 2 mL of fresh media was added to each well and cells were allowed to incubate at 37° C. overnight. The following day cells were selected for with puromycin for 3-10 days, or until the non-infected control cell were completely non-viable.
as §1, with “Prism. […]” for “Prism.”

Where [14] appears, read: PRISM population, ABCB1 expression by RNAseq.
The mark [15] stands for this setting: read-out: IC50 value (absolute) in killing LS1034 cells.

Read-outs that look alike come from different tables or passages of the source.

Consider Vinorelbine, for which, in [1] (setting [14]), the “Cell killing profile against relative levels of ABCB1 expression” value is on record as “robust killing of cells that expressed low levels of ABCB1”.
Turning to `COc1cc2c(cc1OC)CN(CCc1ccc(NC(=O)c3cc(OC)c(OC)cc3NC(=O)c3cnc4ccccc4c3)cc1)CC2` [tariquidar], in series [2] (setting [15]), the IC50 is over 10 µM. For the same compound, the “Phenocopy of tepoxalin activity in PRISM” value in [1] was “did not phenocopy tepoxalin”.
On to `O[C@@H](COc1cccc2ncccc12)CN1CCN([C@@H]2c3ccccc3[C@@H]3[C@H](c4ccccc42)C3(F)F)CC1` [zosuquidar], for which, in series [2] (setting [15]), the IC50 was over 10 µM.
Take Romidepsin: the “Cell killing profile against relative levels of ABCB1 expression” value in series [1] is listed as “robust killing of cells that expressed low levels of ABCB1”.
As to `C/C=C/C[C@@H](C)C(=O)[C@H]1C(=O)N[C@@H](C(C)C)C(=O)N(C)CC(=O)N(C)[C@@H](CC(C)C)C(=O)N[C@@H](C(C)C)C(=O)N(C)[C@@H](CC(C)C)C(=O)N[C@@H](C)C(=O)N[C@H](C)C(=O)N(C)[C@@H](CC(C)C)C(=O)N(C)[C@@H](CC(C)C)C(=O)N(C)[C@@H](C(C)C)C(=O)N1C` [valspodar], the IC50 in series [2] (setting [15]) is over 10 µM.
As to `CC(=O)O[C@H]1C(=O)[C@@]2(C)[C@H]([C@H](OC(=O)c3ccccc3)[C@]3(O)C[C@H](OC(=O)[C@H](O)[C@@H](NC(=O)c4ccccc4)c4ccccc4)C(C)=C1C3(C)C)[C@]1(OC(C)=O)CO[C@@H]1C[C@@H]2O` [paclitaxel, Paclitaxel], in [3], the “Killing of REC1 cells compared with LS1034 cells (IC50 comparison)” value is on record as “more robust killing of REC1 cells than LS1034 cells”. In addition, the IC50 in series [2] (read-out: IC50 in killing LS1034 cells) is 0.165 µM. The “Change of compound-mediated killing with overexpressed ABCB1” value (shortened to “Change of compound-mediated killing”) in [4] (144 hours) is “dampened”.
In the case of `COc1cccc2c1C(=O)c1c(O)c3c(c(O)c1C2=O)C[C@@](O)(C(=O)CO)C[C@@H]3O[C@H]1C[C@H](N)[C@@H](O)[C@H](C)O1` [epirubicin, Epirubicin], in [1] (setting [14]), the “Cell killing profile against relative levels of ABCB1 expression” value is “robust killing of cells that expressed low levels of ABCB1”.
The same measure, in the same setting: the entry for `CC[C@]1(O)C[C@@H]2C[N@@](CCc3c([nH]c4ccccc34)[C@@](C(=O)OC)(c3cc4c(cc3OC)N(C=O)[C@H]3[C@@](O)(C(=O)OC)[C@H](OC(C)=O)[C@]5(CC)C=CCN6CC[C@]43[C@@H]65)C2)C1` [vincristine, Vincristine] is “robust killing of cells that expressed low levels of ABCB1”.
Consider `COc1cccc2c1C(=O)c1c(O)c3c(c(O)c1C2=O)C[C@@](O)(C(=O)CO)C[C@@H]3O[C@H]1C[C@H](N)[C@H](O)[C@H](C)O1` [doxorubicin, Doxorubicin], for which the “Cell killing profile against relative levels of ABCB1 expression” value in series [1] (setting [14]) was “robust killing of cells that expressed low levels of ABCB1”. In addition, the “Change of compound-mediated killing” value in series [4] (144 hours) is recorded as “dampened”.
With `CC(=O)O[C@@]12CO[C@@H]1C[C@H](O)[C@@]1(C)C(=O)[C@H](O)C3=C(C)[C@@H](OC(=O)[C@H](O)[C@@H](NC(=O)OC(C)(C)C)c4ccccc4)C[C@@](O)([C@@H](OC(=O)c4ccccc4)[C@H]21)C3(C)C` [docetaxel, Docetaxel], the “Cell killing profile against relative levels of ABCB1 expression” value in [1] (setting [14]) is reported as “robust killing of cells that expressed low levels of ABCB1”.
Regarding `COc1cc2c(cc1OC)CN(CCc1ccc(NC(=O)c3cccc4c(=O)c5cccc(OC)c5[nH]c34)cc1)CC2` [elacridar], in [3], the “Killing of REC1 cells compared with LS1034 cells (IC50 comparison)” value was “comparable IC50 values for REC1 killing and LS1034 killing”. Further, in series [2] (setting [15]), the IC50 was determined as 1.9 µM. Further, the “Phenocopy of tepoxalin activity in PRISM” value in series [1] is listed as “did not phenocopy tepoxalin”. For the same compound, in [4] (144 hours), the “Cell killing by the compound alone in native and ABCB1-overexpressing Kuramochi cells” value is recorded as “only modest cell killing”.
Turning to `CC(C)C[C@H](NC(=O)[C@H](CCc1ccccc1)NC(=O)CN1CCOCC1)C(=O)N[C@@H](Cc1ccccc1)C(=O)N[C@@H](CC(C)C)C(=O)[C@@]1(C)CO1` [carfilzomib, Carfilzomib], the “Cell killing profile against relative levels of ABCB1 expression” value in series [1] (setting [14]) is “robust killing of cells that expressed low levels of ABCB1”.
Consider `O=C(C(c1ccccc1)c1ccccc1)N1CCN(CC(O)COc2cccc3ncccc23)CC1` (stereo not drawn) [dofequidar], for which the IC50 in [2] (setting [15]) is over 10 µM.
As for `COc1ccc(-n2nc(CCC(=O)O)cc2-c2ccc(Cl)cc2)cc1` [RWJ20142], in [2] (LS1034 cells), the “Viability of treated LS1034 cells” value is reported as “no decrease in viability”. For the same compound, the IC50 in series [5] was over 100 µM. Also, the Activity against cyclooxygenase result in series [6] is “active”. Besides, the Cell permeability entry in series [7] is recorded as “cell impermeability”. Further, the “Maximal plasma concentration relative to parent compound” value in series [8] is listed as “higher maximal plasma concentration than the parent compound”.
With `COc1cccc2c1C(=O)c1c(O)c3c(c(O)c1C2=O)C[C@@](O)(C(C)=O)C[C@@H]3O[C@H]1C[C@H](N)[C@H](O)[C@H](C)O1` [daunorubicin, Daunorubicin], the “Cell killing profile against relative levels of ABCB1 expression” value in series [1] is “robust killing of cells that expressed low levels of ABCB1”.
For the compound `CC(=O)[C@]1(O)Cc2c(O)c3c(c(O)c2[C@@H](O[C@H]2C[C@H](N)[C@H](O)[C@H](C)O2)C1)C(=O)c1ccccc1C3=O` [idarubicin, Idarubicin], the “Cell killing profile against relative levels of ABCB1 expression” value in series [1] (setting [14]) was “robust killing of cells that expressed low levels of ABCB1”.
Turning to `COc1ccc(-n2nc(CCC(=O)N(C)O)cc2-c2ccc(Cl)cc2)cc1` [tepoxalin], the “Killing of REC1 cells compared with LS1034 cells (IC50 comparison)” value in [3] is reported as “more robust killing of REC1 cells than LS1034 cells”. For the same compound, the IC50 in series [2] (setting [15]) stood at 7.8 µM; in [9], 32 µM; in series [12], 12 µM. For the same compound, the “Effect of elacridar co-treatment on killing of LS1034 cells” value in series [2] (LS1034, 120H, co-treatment with the MDR1 inhibitor elacridar across dose ranges) is reported as “rescued”. Further, in series [1] (setting [14]), the “Cell killing profile against relative levels of ABCB1 expression” value is “progressively enhanced killing of cell lines in positive correlation with increasing levels of ABCB1”. For the same compound, the Cell permeability result in series [10] is on record as “readily cell permeable”. The “Gastric ulcers at an effective dose” value in series [11] is “fewer gastric ulcers in a rat model than naproxen”. Also, the “Effect of sg ABCB1-2 on compound-mediated killing of LS1034 cells” value in series [13] is listed as “effectively blocked”. For the same compound, in [4] (144 hours), the “Change of compound-mediated killing” value is listed as “enhanced”. Further, the “Dose-response cell killing curves in combination with 2 μM elacridar, across ABCB1 expression/overexpression” value in series [4] (combination with 2 μM elacridar, Kuramochi versus Kuramochi-ABCB1, 144 hours) is given as “impervious (did not shift)”.
As to `C/C(=C\c1csc(C)n1)[C@@H]1C[C@@H]2O[C@]2(C)CCC[C@H](C)[C@H](O)[C@@H](C)C(=O)C(C)(C)[C@@H](O)CC(=O)N1` [ixabepilone, Ixabepilone], the “Cell killing profile against relative levels of ABCB1 expression” value in [1] is listed as “robust killing of cells that expressed low levels of ABCB1”.

Usually IC50 stands for the concentration that inhibits the measured activity by half.
